Assay results from PubChem BioAssay AID248 (DTP/NCI, 2004).
Several values for one entry are separate records, joined by “and”; a condition that tells them apart may be missing. Equal entries are not always repeated. Inconclusive results and toxic doses are left out. Peptide text beside a SMILES is read from it. * marks the point of attachment. Bn = c1ccc(C*)cc1; For = O=C*

Test system: L1210 leukemia ip in BDF1 mice, survival T/C
Experiment: NCI In Vivo Anticancer Drug Screen. Data for tumor model L1210 Leukemia (intraperitoneal) in B6D2F1 (BDF1) mice
Settings: endpoint: mean survival time, higher = longer survival
Method in brief: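 In this screen, tumor-bearing mice given compound are compared to those given vehicle, and their survival values are reported as a treated-to-control quotient.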

[1] = dose: 100.0 mg/kg/injection, schedule: Q01DX001 (ip), vehicle: carboxymethylcellulose (CMC)
[2] = dose: 200.0 mg/kg/injection, schedule: Q01DX001 (ip), vehicle: carboxymethylcellulose (CMC)
[3] = dose: 400.0 mg/kg/injection, schedule: Q01DX001 (ip), vehicle: carboxymethylcellulose (CMC)
[4] = dose: 100.0 mg/kg/injection, schedule: Q04DX002 (ip), vehicle: Klucel (hydroxypropylcellulose) (HPC)
[5] = dose: 200.0 mg/kg/injection, schedule: Q04DX002 (ip), vehicle: Klucel (hydroxypropylcellulose) (HPC)
[6] = dose: 100.0 mg/kg/injection, schedule: Q01DX009 (ip), vehicle: saline with Tween-80
[7] = dose: 200.0 mg/kg/injection, schedule: Q01DX009 (ip), vehicle: saline with Tween-80
[8] = dose: 100.0 mg/kg/injection, schedule: Q01DX009 (ip), vehicle: Klucel (hydroxypropylcellulose) (HPC)
[9] = dose: 200.0 mg/kg/injection, schedule: Q01DX009 (ip), vehicle: Klucel (hydroxypropylcellulose) (HPC)
[10] = dose: 100.0 mg/kg/injection, schedule: Q01DX001 (ip), vehicle: saline
[11] = dose: 200.0 mg/kg/injection, schedule: Q01DX001 (ip), vehicle: saline
[12] = dose: 400.0 mg/kg/injection, schedule: Q01DX001 (ip), vehicle: saline
[13] = dose: 400.0 mg/kg/injection, schedule: Q01DX009 (ip), vehicle: Klucel (hydroxypropylcellulose) (HPC)
[14] = dose: 100.0 mg/kg/injection, schedule: Q04DX003 (ip), vehicle: Klucel (hydroxypropylcellulose) (HPC)
[15] = dose: 200.0 mg/kg/injection, schedule: Q04DX003 (ip), vehicle: Klucel (hydroxypropylcellulose) (HPC)
[16] = dose: 400.0 mg/kg/injection, schedule: Q04DX003 (ip), vehicle: Klucel (hydroxypropylcellulose) (HPC)
[17] = dose: 100.0 mg/kg/injection, schedule: Q04DX003 (ip), vehicle: saline with Tween-80
[18] = dose: 200.0 mg/kg/injection, schedule: Q04DX003 (ip), vehicle: saline with Tween-80
[19] = dose: 400.0 mg/kg/injection, schedule: Q04DX003 (ip), vehicle: saline with Tween-80

Cc1c2c(cc3c1[nH]c1ccccc13)C(C)N(C)CC2 (centres undefined)
T/C (dose: 14.6 mg/kg/injection, schedule: Q01DX Z (ip), vehicle: saline): 110 % of control
T/C (dose: 22.0 mg/kg/injection, schedule: Q01DX Z (ip), vehicle: saline): 111 % of control
T/C (dose: 32.5 mg/kg/injection, schedule: Q01DX015 (ip), vehicle: carboxymethylcellulose (CMC)): 107 % of control
T/C (dose: 33.0 mg/kg/injection, schedule: Q01DX Z (ip), vehicle: saline): 113 % of control
T/C (dose: 50.0 mg/kg/injection, schedule: Q01DX001 (ip), vehicle: carboxymethylcellulose (CMC)): 109 % of control
T/C (dose: 50.0 mg/kg/injection, schedule: Q01DX Z (ip), vehicle: saline): 119 % of control
T/C (dose: 75.0 mg/kg/injection, schedule: Q01DX015 (ip), vehicle: carboxymethylcellulose (CMC)): 108 % of control
T/C [1]: 109 % of control
T/C (dose: 150.0 mg/kg/injection, schedule: Q01DX015 (ip), vehicle: carboxymethylcellulose (CMC)): 118 % of control
T/C (dose: 150.0 mg/kg/injection, schedule: Q01DX Z (ip), vehicle: saline): 166 % of control
T/C [2]: 106 % of control
T/C (dose: 200.0 mg/kg/injection, schedule: Q01DX Z (ip), vehicle: carboxymethylcellulose (CMC)): 100 % of control
T/C (dose: 300.0 mg/kg/injection, schedule: Q01DX015 (ip), vehicle: carboxymethylcellulose (CMC)): 118 % of control
T/C (dose: 300.0 mg/kg/injection, schedule: Q01DX Z (ip), vehicle: carboxymethylcellulose (CMC)): 107 % of control
T/C [3]: 98 % of control
T/C (dose: 750.0 mg/kg/injection, schedule: Q01DX001 (ip), vehicle: carboxymethylcellulose (CMC)): 110 % of control
T/C (dose: 1500.0 mg/kg/injection, schedule: Q01DX001 (ip), vehicle: carboxymethylcellulose (CMC)): 114 % of control

ClC(Cl)(Cl)C1OCCOCCO1
T/C [4]: 93 % of control
T/C [5]: 97 % of control
T/C (dose: 400.0 mg/kg/injection, schedule: Q04DX002 (ip), vehicle: Klucel (hydroxypropylcellulose) (HPC)): 107 % of control

O=C(OC/C=C/c1ccccc1)c1ccccc1
T/C (dose: 50.0 mg/kg/injection, schedule: Q01DX009 (ip), vehicle: saline with Tween-80): 97 % of control
T/C [6]: 91 % of control
T/C [7]: 91 % of control

CCCCCCNC(=O)NC
T/C [8]: 97 % of control
T/C [9]: 103 % of control

COc1nc(OC)c(OP(=O)(OC)OC)c(OC)n1
T/C (dose: 50.0 mg/kg/injection, schedule: Q01DX001 (ip), vehicle: saline): 95 % of control
T/C [10]: 98 % of control
T/C [11]: 89 % of control
T/C [12]: 95 % of control

COC(C)(C)C(N)C(=O)O (centres undefined)
T/C (dose: 100.0 mg/kg/injection, schedule: Q01DX001 (ip), vehicle: other): 102 % of control
T/C (dose: 100.0 mg/kg/injection, schedule: Q04DX003 (ip), vehicle: other): 120 % of control
T/C (dose: 200.0 mg/kg/injection, schedule: Q01DX001 (ip), vehicle: other): 102 % of control
T/C (dose: 200.0 mg/kg/injection, schedule: Q04DX003 (ip), vehicle: other): 114 % of control
T/C (dose: 400.0 mg/kg/injection, schedule: Q01DX001 (ip), vehicle: other): 102 % of control
T/C (dose: 400.0 mg/kg/injection, schedule: Q04DX003 (ip), vehicle: other): 96 % of control

COC(=O)C1CCC2(C)C=CC(=O)C(C)C2C1 (centres undefined)
T/C (dose: 75.0 mg/kg/injection, schedule: Q04DX003 (ip), vehicle: saline): 100 % of control
T/C (dose: 150.0 mg/kg/injection, schedule: Q04DX003 (ip), vehicle: saline): 100 % of control
T/C (dose: 300.0 mg/kg/injection, schedule: Q04DX003 (ip), vehicle: saline): 96 % of control

N#Cc1nc2c3ccccc3c(N=NC(N)=S)c-2[nH]c1C#N
T/C (dose: 50.0 mg/kg/injection, schedule: Q04DX002 (ip), vehicle: Klucel (hydroxypropylcellulose) (HPC)): 87 % of control
T/C [4]: 91 % of control
T/C [5]: 91 % of control

C1=Nc2ccccc2/C1=C/c1cccs1
T/C [1]: 97 % of control
T/C (dose: 100.0 mg/kg/injection, schedule: Q01DX009 (ip), vehicle: carboxymethylcellulose (CMC)): 96 % of control and 108 % of control
T/C (dose: 100.0 mg/kg/injection, schedule: Q04DX002 (ip), vehicle: carboxymethylcellulose (CMC)): 100 % of control and 102 % of control
T/C (dose: 100.0 mg/kg/injection, schedule: Q04DX003 (ip), vehicle: carboxymethylcellulose (CMC)): 95 % of control
T/C [2]: 98 % of control
T/C (dose: 200.0 mg/kg/injection, schedule: Q01DX009 (ip), vehicle: carboxymethylcellulose (CMC)): 96 % of control and 105 % of control
T/C (dose: 200.0 mg/kg/injection, schedule: Q04DX002 (ip), vehicle: carboxymethylcellulose (CMC)): 104 % of control and 110 % of control
T/C (dose: 200.0 mg/kg/injection, schedule: Q04DX003 (ip), vehicle: carboxymethylcellulose (CMC)): 89 % of control
T/C [3]: 93 % of control
T/C (dose: 400.0 mg/kg/injection, schedule: Q01DX009 (ip), vehicle: carboxymethylcellulose (CMC)): 89 % of control and 91 % of control
T/C (dose: 400.0 mg/kg/injection, schedule: Q04DX002 (ip), vehicle: carboxymethylcellulose (CMC)): 103 % of control and 104 % of control

COc1cccc(N=Cc2ccc(C=Nc3cccc(OC)c3)cc2)c1
T/C [8]: 89 % of control
T/C [9]: 94 % of control
T/C [13]: 88 % of control

COC1OC(OC)[CH]([Hg][Cl])C1OC (centres undefined)
T/C (dose: 3.13 mg/kg/injection, schedule: Q01DX009 (ip), vehicle: saline with Tween-80): 94 % of control
T/C (dose: 6.25 mg/kg/injection, schedule: Q01DX009 (ip), vehicle: saline with Tween-80): 92 % of control
T/C (dose: 6.25 mg/kg/injection, schedule: Q04DX003 (ip), vehicle: saline): 100 % of control
T/C (dose: 12.5 mg/kg/injection, schedule: Q01DX009 (ip), vehicle: saline with Tween-80): 91 % of control
T/C (dose: 12.5 mg/kg/injection, schedule: Q04DX003 (ip), vehicle: saline): 100 % of control

O=S1(=O)CCC(O)C1 (centres undefined)
T/C [10]: 92 % of control
T/C (dose: 100.0 mg/kg/injection, schedule: Q01DX009 (ip), vehicle: saline): 93 % of control
T/C [11]: 97 % of control
T/C (dose: 200.0 mg/kg/injection, schedule: Q01DX009 (ip), vehicle: saline): 105 % of control
T/C [12]: 100 % of control
T/C (dose: 400.0 mg/kg/injection, schedule: Q01DX009 (ip), vehicle: saline): 100 % of control

COc1ccc(C(=O)/C=C/c2ccc3c(c2)OCO3)cc1OC
T/C [8]: 87 % of control
T/C [14]: 98 % of control
T/C [9]: 90 % of control
T/C [15]: 98 % of control
T/C [13]: 90 % of control
T/C [16]: 96 % of control

COc1ccc(Cl)cc1NC(=O)Nc1ccc(S(N)(=O)=O)cc1
T/C [8]: 102 % of control
T/C [9]: 93 % of control
T/C [13]: 94 % of control

Cc1ncc2c(=O)n(-c3ccc([N+](=O)[O-])cc3)[nH]c2n1
T/C [17]: 108 % of control
T/C [18]: 100 % of control
T/C [19]: 108 % of control

CC(C)CC(NC(=O)C(Cc1ccc(OCc2ccccc2)cc1)NC=O)C(=O)O (centres undefined) (For-Tyr(Bn)-Leu-OH; configuration not given here)
T/C [6]: 98 % of control
T/C [17]: 97 % of control
T/C [7]: 98 % of control
T/C [18]: 97 % of control
T/C [19]: 92 % of control

O=S(=O)(O)c1ccc2c(N=Nc3ccc(S(=O)(=O)N(CCCl)CCCl)cc3)c(O)c(S(=O)(=O)O)cc2c1
T/C (dose: 50.0 mg/kg/injection, schedule: Q04DX003 (ip), vehicle: Klucel (hydroxypropylcellulose) (HPC)): 106 % of control
T/C [14]: 90 % of control
T/C [15]: 93 % of control

CCOC(=O)c1ccc(C(=O)O)[n+]([O-])c1
T/C [8]: 100 % of control
T/C [14]: 92 % of control
T/C [9]: 95 % of control
T/C [15]: 100 % of control
T/C [16]: 96 % of control

CCN(CC)CCN(CC)C(=S)Nc1ccccc1
T/C (dose: 12.5 mg/kg/injection, schedule: Q01DX009 (ip), vehicle: Klucel (hydroxypropylcellulose) (HPC)): 117 % of control
T/C (dose: 25.0 mg/kg/injection, schedule: Q01DX009 (ip), vehicle: Klucel (hydroxypropylcellulose) (HPC)): 109 % of control
T/C (dose: 50.0 mg/kg/injection, schedule: Q01DX009 (ip), vehicle: Klucel (hydroxypropylcellulose) (HPC)): 102 % of control
